# Laboratory results published in patent publication US11135153B2, “High penetration composition and uses thereof” (Techfields Pharma Co., Ltd., priority 2006, dated 2021).
# Where two headings read alike, the source gives them in different places.
# Assays:
# [1] = Plasma levels of parent compounds after transdermal administration to hairless mice; assay type: in vivo; conditions: transdermal on 10 cm^2 back skin; for Plasma concentration of the parent compound (peak plasma level): 20% solution or suspension in 1 ml 70% ethanol; for t (time to peak plasma level of the parent compound): 20% in 1 ml 70% ethanol
# Procedure: Test compounds (20% solution or suspension of HPPs or parent drugs in 1 ml of 70% ethanol) were administered transdermally to 10 cm^2 skin on the backs of hairless mice. The plasma levels of the parent compounds were determined by HPLC.
# mice = test: Analgesic activity, acetic acid writhing inhibition; assay type: in vivo; conditions: 100 mg/kg transdermally, versus control group
# Procedure: Acetic acid solution was administered intraperitoneally to a group of mice (6 mice every group) 120 minutes after a test compound was administered to the mice at the dosage specified in the tables below. The prodrug compounds were administered either transdermally or orally. N-acetyl-p-aminophenyl dimethylaminobutyrate.HCl (100 mg/kg, B) and 4-acetamidophenyl 2((4-(dimethylamino)butanoyl)oxy)benzoate.HCl, (100 mg/kg, C) were administered transdermally. The number of writhings that occurred when mice were administered the acetic acid solution were counted, and the rate of inhibition based on the control group which was not pretreated with any test compounds was calculated. […] Group A was the control group.
# rats = test: Antipyretic activity in rats given E. coli suspension as pyrogen; assay type: in vivo; conditions: 100 mg/kg transdermally
# Procedure: Rats received a sterilized E. coli suspension as a pyrogen. The control group was group A. 2 hours later, N-acetyl-p-aminophenyl dimethylaminobutyrate.HCl (100 mg/kg, B) and 4-acetamidophenyl 2((4-(dimethylamino)butanoyl)oxy)benzoate.HCl, (100 mg/kg, C) were administered transdermally respectively. The body temperature of rats was taken at 90 min. intervals before and after the administration of the test compounds.
# [2] = Aqueous solubility of HPPs and parent drugs; assay type: physicochemical
# [3] = In vitro penetration rate through human skin in modified Franz cells; assay type: in vitro ADME; conditions: isolated human skin 360-400 μm, 2 mL, 20% in 0.2 M phosphate buffer pH 7.4
# Procedure: The penetration rates of HPPs of 4-aminophenol derivatives and their parent drugs through human skin were measured in vitro by modified Franz cells. […] The human skin tissue (360-400 μm thick) that separated the top and the receptor chambers was isolated from the anterior or posterior thigh areas.
# The amount of the tested compound penetrating the skin was determined by high-performance liquid chromatography (HPLC) method.
# The lowest detectable apparent flux values in this method was 1 μg/cm^2/h, the parent drugs tested (e.g. acetaminophen and acetaminosalol) had […], and the corresponding HPPs had higher apparent flux value.
# [4] = In vivo transportation: amounts in organs and tissue of rats after application to back skin; conditions: 6 hours after 20% in 1 mL 50% ethanol on 10 cm^2 back skin
# Procedure: N-Acetyl-p-aminophenyl dimethylaminobutyrate.HCl (20% in 1 mL of 50% ethanol) was applied to about 10 cm^2 skin on the backs of rats (˜200 g). After 6 hours, the rats were terminated, and methanol (5 mL) was added to 1 g of tissue on the back of rat (under the skin), 1 ml of blood, 1 g of liver, 1 g of kidney, and 1 g of brain respectively (the tissue, liver, kidney or brain was washed with pH 7.2 buffer for three times) and the mixtures were homogenized. The samples were then centrifuged for 5 min and analyzed using HPLC.
# in vivo = conditions: mouse
# [5] = water (aqueous), read-out: Solubility
structure (smiles),measurement,setting,value
CC(=O)Nc1ccc(OC(=O)c2ccccc2OC(=O)CCCN(C)C)cc1.Cl [4-acetamidophenyl 2((4-(dimethylamino)butanoyl)oxy)benzoate.HCl],Plasma concentration of the parent compound (peak plasma level),[1],30000 ng/mL
same,t (time to peak plasma level of the parent compound),[1]; prodrug compound,~50 min
same,rate of writhings inhibition,mice,55%
same,"body temperature, t = 0 min.",rats,37.27 ± 0.06
same,"body temperature, t = 90 min.",rats,36.63 ± 0.05
same,"body temperature, t = 180 min.",rats,36.52 ± 0.08
same,"body temperature, t = 270 min.",rats,36.50 ± 0.07
same,solubility,[2],>400 mg/mL
same,In vitro Penetration rate (apparent flux),[3],1800 μg/cm^2/h
CC(=O)Nc1ccc(OC(=O)CCCN(C)C)cc1.Cl [N-Acetyl-p-Aminophenyl Dimethylaminobutyrate.HCl],N-acetyl-p-aminophenyl dimethylaminobutyrate detected in blood,[4],10 ± 4 µg/g
same,N-acetyl-p-aminophenyl dimethylaminobutyrate detected in brain,[4],3 ± 3 µg/g
same,N-acetyl-p-aminophenyl dimethylaminobutyrate detected in kidney,[4],6 ± 4 µg/g
same,N-acetyl-p-aminophenyl dimethylaminobutyrate detected in liver,[4],7 ± 4 µg/g
same,N-acetyl-p-aminophenyl dimethylaminobutyrate detected in under-skin tissue,[4],15 ± 8 µg/g
same,acetaminophen detected in blood,[4],30 ± 8 µg/g
same,acetaminophen detected in brain,[4],10 ± 8 µg/g
same,acetaminophen detected in kidney,[4],20 ± 10 µg/g
same,acetaminophen detected in liver,[4],20 ± 10 µg/g
same,acetaminophen detected in under-skin tissue,[4],60 ± 10 µg/g
same,Plasma concentration of the parent compound (peak plasma level),[1],30000 ng/mL
same,t (time to peak plasma level of the parent compound),[1]; prodrug compound,~50 min
same,rate of writhings inhibition,mice,55%
same,"body temperature, t = 0 min.",rats,37.32 ± 0.06
same,"body temperature, t = 90 min.",rats,36.61 ± 0.05
same,"body temperature, t = 180 min.",rats,36.50 ± 0.08
same,"body temperature, t = 270 min.",rats,36.50 ± 0.07
same,solubility,[2],>400 mg/mL
same,In vitro Penetration rate (apparent flux),[3],1500 μg/cm^2/h
"CC(=O)Nc1ccc(O)cc1 [acetaminophen, N-Acetyl-p-aminophenol, reference compound]",LD50,in vivo,340 mg/kg
same,Plasma concentration of the parent compound (peak plasma level),[1],100 ng/mL
same,t (time to peak plasma level of the parent compound),[1]; parent compound,~300 min
same,solubility,[2]; [5],< 0.2 mg/mL
same,In vitro Penetration rate (apparent flux),[3],10 μg/cm^2/h
"CC(=O)Nc1ccc(OC(=O)c2ccccc2O)cc1 [acetaminosalol, 4-acetamidophenyl salicylate, reference compound]",LD50,in vivo,550 mg/kg
same,Plasma concentration of the parent compound (peak plasma level),[1],100 ng/mL
same,t (time to peak plasma level of the parent compound),[1]; parent compound,~300 min
same,solubility,[2]; [5],< 0.1 mg/mL
same,In vitro Penetration rate (apparent flux),[3],10 μg/cm^2/h
